Laboratory results from US20240382629A1, “HETEROBIVALENT AND HOMOBIVALENT AGENTS TARGETING FIBROBLAST ACTIVATION PROTEIN ALPHA AND/OR PROSTATE-SPECIFIC MEMBRANE ANTIGEN” (The Johns Hopkins University, priority 2021, published 2024).

Legend:
PSMA+ 786-O tumor = assay: PET imaging and biodistribution in PSMA+ 786-O ccRCC tumor-bearing mice; assay type: in vivo, mouse; settings: 2 h
Description: Experiment 4 consisted of preliminary imaging (7.4 MBq) (n=2) and biodistribution studies (0.74 MBq) at 2 h in male NSG healthy mice (n=3) and tumor-bearing human clear cell renal cell carcinoma (ccRCC) PSMA+786-O tumors (n=4).

[1] = Stability of radiotracer in PBS and bovine serum albumin; assay type: physicochemical; settings: in PBS and bovine serum albumin at 37° C.
Description: Click chemistry was used to conjugate the FAP and PSMA targeting moieties with the selected linker. Radiolabeling employed a rapid microwave-assisted method to generate ^64Cu-FP-L1 in nearly quantitative yield. High-performance liquid chromatography (HPLC) was used to remove unreacted ligand to ensure high specific radioactivity (>19 MBq/nmol). ^64Cu-FP-L1 was stable for at least 4 h in PBS and bovine serum albumin at 37° C.

PSMA+ PC3 PIP tumor = assay: PET imaging and biodistribution in PSMA+ PC3 PIP tumor-bearing mice; assay type: in vivo, mouse
Description: Cell uptake assays, flow cytometry, and IHC were performed as described previously. […] PET imaging and biodistribution Sequential PET imaging and biodistribution studies were conducted to quantify and validate PET imaging data. Briefly, tumor-bearing mice were administrated approximately 7.4 MBq of radiotracer in 150 μL saline via tail-vein injection. They were randomized into the indicated groups of 3-4 mice before radiotracer injection.

U87 tumor = assay: PET imaging and tissue biodistribution in U87 tumor-bearing mice; assay type: in vivo, mouse; settings: for Biodistribution: Bladder / Biodistribution: Blood / Biodistribution: Bone / Biodistribution: Fat / Biodistribution: Heart / Biodistribution: Kidney / Biodistribution: Lac.gl / Biodistribution: Liver / Biodistribution: Lung / Biodistribution: Muscle / Biodistribution: Pancreas / Biodistribution: Sal.gl / Biodistribution: Sm.in / Biodistribution: Spleen / Biodistribution: Stomach / Biodistribution: Tumor: in %ID/g
Description: Cell uptake assays, flow cytometry, and IHC were performed as described previously. Banerjee et al., 2019; Nimmagadda et al., 2018. PET imaging and biodistribution Sequential PET imaging and biodistribution studies were conducted to quantify and validate PET imaging data. Briefly, tumor-bearing mice were administrated approximately 7.4 MBq of radiotracer in 150 μL saline via tail-vein injection. They were randomized into the indicated groups of 3-4 mice before radiotracer injection.
In Experiment 1, bilateral xenografts of U87 (right flank) and PSMA+ PC3 PIP (left flank) tumors were established in male NSG mice (n=3), which underwent imaging followed by biodistribution over 24 h. […] A biodistribution study was further conducted with U87 tumors at 2 h post-injection (n=3) to compare the tissue distribution properties of ^64Cu-FP-L1 and ^64Cu-FAPI-04.

[2] = 2 h, blocking with FAPI-04 (500 nmol/kg)
[3] = blocking with ZJ43 (500 nmol/kg)
[4] = 1 h, NSG mice, U87 tumor, n=3-4
[5] = 1 h block, 10 nmol FAPI-04, NSG mice, U87 tumor
[6] = 2 h (n = 4), NSG mice, U87 tumor

For `N#C[C@@H]1CCCN1C(=O)CNC(=O)c1ccnc2ccc(OCCCNC(=O)CCc3cn(CCOCCOCCOCCC(=O)N[C@@H](CCCCNC(=O)CN4CCN(CC(=O)O)CCN(CC(=O)O)CC4)C(=O)NCCCCC(=O)N(CCCC[C@H](NC(=O)N[C@@H](CCC(=O)O)C(=O)O)C(=O)O)Cc4ccc(Br)cc4)nn3)cc12` [^64Cu-FP-L1, metal not drawn], the “Tumor uptake, PSMA+ 786-O” value (PSMA+ 786-O tumor) was 11.97±1.63 % ID/g, the “Renal uptake in PSMA+ 786-O xenograft-bearing NSG mice vs healthy NSG mice” value (PSMA+ 786-O tumor; head-to-head biodistribution) was “high renal uptake compared to healthy mice” and the “Stability (stable for at least)” value [1] was “at least 4 h”. For the same compound, the “Uptake in PSMA+ PC3 PIP tumor” value (PSMA+ PC3 PIP tumor; 2 h) was 12.06±0.78 % ID/g, the “Uptake in PSMA+ PC3 PIP tumors with FAP blockade” value (PSMA+ PC3 PIP tumor; [2]) was 18.56±2.02 % ID/g and the “Uptake in PSMA+ PC3 PIP tumor” value (PSMA+ PC3 PIP tumor; 4 h) was 18.89±3.95 % ID/g. The “Uptake in PSMA+ PC3 PIP tumor” value (PSMA+ PC3 PIP tumor; 24 h) was 10.51±1.82 % ID/g, the “Fold lower kidney uptake with ZJ43 vs unblocked” value (PSMA+ PC3 PIP tumor; ZJ43 (500 nmol/kg)) was > 2 fold and the “Kidney uptake with PSMA blockade” value (PSMA+ PC3 PIP tumor; [3]) was 2.97±0.23 % ID/g. The “Uptake in PSMA+ PIP tumor with PSMA blockade” value (PSMA+ PC3 PIP tumor; [3]) was 7.48±0.5 % ID/g, the “Tumor uptake and retention in PSMA+PC3 PIP tumor” value (PSMA+ PC3 PIP tumor; from 1 to 24 h post-injection) was > 10 % injected dose per gram of tissue and the “Kidney uptake, unblocked agent” value (PSMA+ PC3 PIP tumor; unblocked) was 8.03±0.89 % ID/g. For the same compound, the “Biodistribution: Bladder” value (U87 tumor; [4]) was 2.41 ± 0.62, the “Biodistribution: Blood” value (U87 tumor; [4]) was 10.12 ± 3.23 and the “Biodistribution: Bone” value (U87 tumor; [4]) was 4.17 ± 0.13. For the same compound, the “Biodistribution: Fat” value (U87 tumor; [4]) was 0.77 ± 0.12, the “Biodistribution: Heart” value (U87 tumor; [4]) was 3.42 ± 2.73 and the “Biodistribution: Kidney” value (U87 tumor; [4]) was 21.58 ± 5.33. For the same compound, the “Biodistribution: Lac.gl” value (U87 tumor; [4]) was 5.47 ± 4.13, the “Biodistribution: Liver” value (U87 tumor; [4]) was 5.35 ± 0.43 and the “Biodistribution: Lung” value (U87 tumor; [4]) was 5.32 ± 1.42. The “Biodistribution: Muscle” value (U87 tumor; [4]) was 2.29 ± 0.08, the “Biodistribution: Pancreas” value (U87 tumor; [4]) was 7.17 ± 1.19 and the “Biodistribution: Sal.gl” value (U87 tumor; [4]) was 12.01 ± 3.62. The “Biodistribution: Sm.in” value (U87 tumor; [4]) was 4.22 ± 1.78, the “Biodistribution: Spleen” value (U87 tumor; [4]) was 2.20 ± 0.54 and the “Biodistribution: Stomach” value (U87 tumor; [4]) was 2.51 ± 0.25. For the same compound, the “Biodistribution: Tumor” value (U87 tumor; [4]) was 12.04 ± 2.39, the “Biodistribution: Bladder” value (U87 tumor; [5]) was 1.22 ± 0.15 and the “Biodistribution: Blood” value (U87 tumor; [5]) was 1.38 ± 0.19. The “Biodistribution: Bone” value (U87 tumor; [5]) was 0.72 ± 0.08, the “Biodistribution: Fat” value (U87 tumor; [5]) was 0.31 ± 0.04 and the “Biodistribution: Heart” value (U87 tumor; [5]) was 0.94 ± 0.35. For the same compound, the “Biodistribution: Kidney” value (U87 tumor; [5]) was 6.09 ± 0.18, the “Biodistribution: Lac.gl” value (U87 tumor; [5]) was 1.48 ± 0.45 and the “Biodistribution: Liver” value (U87 tumor; [5]) was 6.19 ± 1.06. The “Biodistribution: Lung” value (U87 tumor; [5]) was 2.63 ± 0.27, the “Biodistribution: Muscle” value (U87 tumor; [5]) was 0.38 ± 0.05 and the “Biodistribution: Pancreas” value (U87 tumor; [5]) was 1.01 ± 0.10. For the same compound, the “Biodistribution: Sal.gl” value (U87 tumor; [5]) was 2.00 ± 0.19, the “Biodistribution: Sm.in” value (U87 tumor; [5]) was 3.00 ± 0.22 and the “Biodistribution: Spleen” value (U87 tumor; [5]) was 1.55 ± 0.07. For the same compound, the “Biodistribution: Stomach” value (U87 tumor; [5]) was 1.96 ± 0.07, the “Biodistribution: Tumor” value (U87 tumor; [5]) was 4.37 ± 0.70 and the “Biodistribution: Bladder” value (U87 tumor; [6]) was 2.68 ± 0.83. For the same compound, the “Biodistribution: Blood” value (U87 tumor; [6]) was 9.93 ± 2.13, the “Biodistribution: Bone” value (U87 tumor; [6]) was 5.36 ± 1.89 and the “Biodistribution: Fat” value (U87 tumor; [6]) was 0.66 ± 0.52. The “Biodistribution: Heart” value (U87 tumor; [6]) was 4.62 ± 0.68, the “Biodistribution: Kidney” value (U87 tumor; [6]) was 26.85 ± 7.39 and the “Biodistribution: Lac.gl” value (U87 tumor; [6]) was 8.11 ± 1.24. For the same compound, the “Biodistribution: Liver” value (U87 tumor; [6]) was 6.15 ± 0.65, the “Biodistribution: Lung” value (U87 tumor; [6]) was 5.65 ± 1.54 and the “Biodistribution: Muscle” value (U87 tumor; [6]) was 2.10 ± 0.13. For the same compound, the “Biodistribution: Pancreas” value (U87 tumor; [6]) was 5.98 ± 0.58, the “Biodistribution: Sal.gl” value (U87 tumor; [6]) was 8.96 ± 1.47 and the “Biodistribution: Sm.in” value (U87 tumor; [6]) was 6.12 ± 1.91. For the same compound, the “Biodistribution: Spleen” value (U87 tumor; [6]) was 2.68 ± 0.62, the “Biodistribution: Stomach” value (U87 tumor; [6]) was 2.19 ± 0.33 and the “Biodistribution: Tumor” value (U87 tumor; [6]) was 14.65 ± 3.68. The “Tumor uptake, FAP+ U87 tumor” value (U87 tumor; 2 h, bilateral U87 / PSMA+ PC3 PIP model) was 16.96±5.01 % ID/g, the “Uptake in U87 tumor with FAP blockade” value (U87 tumor; [2]) was 2.47±0.82 % ID/g and the “Biodistribution: Bladder” value (U87 tumor; 2 h Nude mice (n = 4)) was 1.80 ± 0.24. For the same compound, the “Biodistribution: Blood” value (U87 tumor; 2 h Nude mice (n = 4)) was 6.50 ± 1.05, the “Biodistribution: Bone” value (U87 tumor; 2 h Nude mice (n = 4)) was 3.51 ± 0.45 and the “Biodistribution: Fat” value (U87 tumor; 2 h Nude mice (n = 4)) was 0.86 ± 0.03. For the same compound, the “Biodistribution: Heart” value (U87 tumor; 2 h Nude mice (n = 4)) was 2.77 ± 0.25, the “Biodistribution: Kidney” value (U87 tumor; 2 h Nude mice (n = 4)) was 11.66 ± 0.95 and the “Biodistribution: Lac.gl” value (U87 tumor; 2 h Nude mice (n = 4)) was 5.44 ± 0.78. For the same compound, the “Biodistribution: Liver” value (U87 tumor; 2 h Nude mice (n = 4)) was 4.16 ± 0.66, the “Biodistribution: Lung” value (U87 tumor; 2 h Nude mice (n = 4)) was 4.37 ± 0.48 and the “Biodistribution: Muscle” value (U87 tumor; 2 h Nude mice (n = 4)) was 1.80 ± 0.26.
